For 7 compounds, mutagenic call results are on record in PubChem BioAssay AID1259407 (Chemical Carcinogenesis Research Information System (CCRIS), 2018).

The subject of this data set is CCRIS mutagenicity, Ames/micronucleus/aberration tests. In words: CCRIS mutagenicity studies.
Where [1] appears, read: Test System: AMES SALMONELLA TYPHIMURIUM, Strain/Indicator: TA98, Metabolic Activation: NONE, Method: PREINCUBATION
Setting [2] is: Test System: AMES SALMONELLA TYPHIMURIUM, Strain/Indicator: TA100, Metabolic Activation: NONE, Method: PREINCUBATION
Where [3] appears, read: Test System: AMES SALMONELLA TYPHIMURIUM, Strain/Indicator: TA100, Metabolic Activation: RAT, LIVER, S-9, AROCLOR 1254 (10%), Method: PREINCUBATION
Where [4] appears, read: Test System: AMES SALMONELLA TYPHIMURIUM, Strain/Indicator: TA1535, Metabolic Activation: NONE, Method: PREINCUBATION
The mark [5] stands for this setting: Test System: AMES SALMONELLA TYPHIMURIUM, Strain/Indicator: TA1535, Metabolic Activation: RAT, LIVER, S-9, AROCLOR 1254 (10%), Method: PREINCUBATION
The mark [6] stands for this setting: Test System: AMES SALMONELLA TYPHIMURIUM, Strain/Indicator: TA1537, Metabolic Activation: NONE, Method: PREINCUBATION
The mark [7] stands for this setting: Test System: AMES SALMONELLA TYPHIMURIUM, Strain/Indicator: TA97, Metabolic Activation: NONE, Method: PREINCUBATION

SMILES strings stand for the structures. Calls of active or inactive are those of the source. How the calls were made is not given here.

`O=[N+]([O-])c1ccc2c(O)cc3cccc4ccc1c2c43`: the mutagenic call by setting is: (Test System: AMES SALMONELLA TYPHIMURIUM, Strain/Indicator: TA98(1,8-DNP6), Metabolic Activation: NONE, Method: STANDARD PLATE) “active; positive”; (Test System: AMES SALMONELLA TYPHIMURIUM, Strain/Indicator: TA98(1,8-DNP6), Metabolic Activation: RAT, LIVER, S-9, AROCLOR 1254, Method: STANDARD PLATE) “active; positive”; (Test System: AMES SALMONELLA TYPHIMURIUM, Strain/Indicator: TA98, Metabolic Activation: NONE, Method: STANDARD PLATE) “active; positive”; (Test System: AMES SALMONELLA TYPHIMURIUM, Strain/Indicator: TA98, Metabolic Activation: RAT, LIVER, S-9, AROCLOR 1254, Method: STANDARD PLATE) “active; positive”; (Test System: AMES SALMONELLA TYPHIMURIUM, Strain/Indicator: YG1024, Metabolic Activation: NONE, Method: STANDARD PLATE) “active; positive”; (Test System: AMES SALMONELLA TYPHIMURIUM, Strain/Indicator: YG1024, Metabolic Activation: RAT, LIVER, S-9, AROCLOR 1254, Method: STANDARD PLATE) “active; positive”.
On to `CCCCCCCC/C=C/CCCCCCCC(=O)OCCOCC(OCCO)C1OCC(OCCO)C1OCCO` (configuration not stated), for which the mutagenic call (Test System: AMES SALMONELLA TYPHIMURIUM, Strain/Indicator: TA98, Metabolic Activation: HAMSTER, LIVER, S-9, AROCLOR 1254 (10%), Method: PREINCUBATION) was “inactive; negative”; the mutagenic call under setting [1] was “inactive; negative”; the mutagenic call (Test System: AMES SALMONELLA TYPHIMURIUM, Strain/Indicator: TA98, Metabolic Activation: RAT, LIVER, S-9, AROCLOR 1254 (10%), Method: PREINCUBATION) is “inactive; negative”; the mutagenic call (Test System: AMES SALMONELLA TYPHIMURIUM, Strain/Indicator: TA100, Metabolic Activation: HAMSTER, LIVER, S-9, AROCLOR 1254 (10%), Method: PREINCUBATION) is “inactive; negative”; the mutagenic call under setting [2] was “inactive; negative”; the mutagenic call under setting [3] is “inactive; negative”. Also, the mutagenic call by setting is: (Test System: AMES SALMONELLA TYPHIMURIUM, Strain/Indicator: TA1535, Metabolic Activation: HAMSTER, LIVER, S-9, AROCLOR 1254 (10%), Method: PREINCUBATION) “inactive; negative”; under setting [4], “inactive; negative”; under setting [5], “inactive; negative”; (Test System: AMES SALMONELLA TYPHIMURIUM, Strain/Indicator: TA1537, Metabolic Activation: HAMSTER, LIVER, S-9, AROCLOR 1254 (10%), Method: PREINCUBATION) “inactive; negative”; under setting [6], “inactive; negative”; (Test System: AMES SALMONELLA TYPHIMURIUM, Strain/Indicator: TA1537, Metabolic Activation: RAT, LIVER, S-9, AROCLOR 1254 (10%), Method: PREINCUBATION) “inactive; negative”.
Turning to `Cc1c(C)c2c(N)c3ccccc3nc2c2ccccc12`, the mutagenic call was “active; positive” under setting [7]; “active; positive” (Test System: AMES SALMONELLA TYPHIMURIUM, Strain/Indicator: TA97, Metabolic Activation: NONE, Method: STANDARD PLATE); “active; positive” under setting [1]; “inactive; negative” under setting [6]; “active; positive” (Test System: AMES SALMONELLA TYPHIMURIUM, Strain/Indicator: TA1537, Metabolic Activation: NONE, Method: STANDARD PLATE).
For the compound `Cc1ccccc1C#N`, the mutagenic call was “inactive; negative” (Test System: AMES SALMONELLA TYPHIMURIUM, Strain/Indicator: TA97, Metabolic Activation: HAMSTER, LIVER, S-9, AROCLOR 1254 (10 OR 30%), Method: PREINCUBATION); “inactive; negative” under setting [7]; “inactive; negative” (Test System: AMES SALMONELLA TYPHIMURIUM, Strain/Indicator: TA97, Metabolic Activation: RAT, LIVER, S-9, AROCLOR 1254 (10%), Method: PREINCUBATION); “inactive; negative” (Test System: AMES SALMONELLA TYPHIMURIUM, Strain/Indicator: TA97, Metabolic Activation: RAT, LIVER, S-9, AROCLOR 1254 (30%), Method: PREINCUBATION); “inactive; negative” (Test System: AMES SALMONELLA TYPHIMURIUM, Strain/Indicator: TA98, Metabolic Activation: HAMSTER, LIVER, S-9, AROCLOR 1254 (10 OR 30%), Method: PREINCUBATION); “inactive; negative” under setting [1]. Besides, the mutagenic call (Test System: AMES SALMONELLA TYPHIMURIUM, Strain/Indicator: TA98, Metabolic Activation: RAT, LIVER, S-9, AROCLOR 1254 (10 OR 30%), Method: PREINCUBATION) is “inactive; negative”; the mutagenic call (Test System: AMES SALMONELLA TYPHIMURIUM, Strain/Indicator: TA100, Metabolic Activation: HAMSTER, LIVER, S-9, AROCLOR 1254 (10 OR 30%), Method: PREINCUBATION) was “inactive; negative”; the mutagenic call under setting [2] was “inactive; negative”; the mutagenic call under setting [3] is “inactive; negative”; the mutagenic call (Test System: AMES SALMONELLA TYPHIMURIUM, Strain/Indicator: TA100, Metabolic Activation: RAT, LIVER, S-9, AROCLOR 1254 (30%), Method: PREINCUBATION) was “inactive; negative”; the mutagenic call (Test System: AMES SALMONELLA TYPHIMURIUM, Strain/Indicator: TA1535, Metabolic Activation: HAMSTER, LIVER, S-9, AROCLOR 1254 (10 OR 30%), Method: PREINCUBATION) is “inactive; negative”. Further, the mutagenic call was “inactive; negative” under setting [4]; “inactive; negative” under setting [5]; “inactive; negative” (Test System: AMES SALMONELLA TYPHIMURIUM, Strain/Indicator: TA1535, Metabolic Activation: RAT, LIVER, S-9, AROCLOR 1254 (30%), Method: PREINCUBATION); “active; positive. reevaluation of results: positive” (Test System: MOUSE LYMPHOMA, Strain/Indicator: L5178Y (TK+/TK-), Metabolic Activation: RAT, LIVER, S-9, AROCLOR 1254, Method: SUSPENSION/PLATE); “inactive; negative” (Test System: Mouse lymphoma, Strain/Indicator: L5178Y (tk+/tk-), Metabolic Activation: None, Method: Suspension/plate).
As to `O=[N+]([O-])[C-]1CCCC1`, the mutagenic call is “active; positive” under setting [2]; “active; positive” (Test System: AMES SALMONELLA TYPHIMURIUM, Strain/Indicator: TA100, Metabolic Activation: RAT, LIVER, S-9, AROCLOR, Method: PREINCUBATION); “active; positive” (Test System: AMES SALMONELLA TYPHIMURIUM, Strain/Indicator: TA102, Metabolic Activation: NONE, Method: PREINCUBATION); “active; positive” (Test System: AMES SALMONELLA TYPHIMURIUM, Strain/Indicator: TA102, Metabolic Activation: RAT, LIVER, S-9, AROCLOR, Method: PREINCUBATION).
As to `OCCN1CCNCC1`, the mutagenic call under setting [1] is “inactive; negative”; the mutagenic call (Test System: AMES SALMONELLA TYPHIMURIUM, Strain/Indicator: TA98, Metabolic Activation: RAT, LIVER, S-9, PCB, Method: PREINCUBATION) was “inactive; negative”; the mutagenic call under setting [2] was “inactive; negative”; the mutagenic call (Test System: AMES SALMONELLA TYPHIMURIUM, Strain/Indicator: TA100, Metabolic Activation: RAT, LIVER, S-9, PCB, Method: PREINCUBATION) was “inactive; negative”.
Turning to `O=c1c2c(O)cc(O)cc2oc2c(O)ccc(O[C@@H]3O[C@H](CO)[C@@H](O)[C@H](O)[C@H]3O)c12`, the mutagenic call by setting is: (Test System: AMES SALMONELLA TYPHIMURIUM, Strain/Indicator: TA97, Metabolic Activation: RAT, LIVER, S-9, PHENOBARBITAL AND 5,6-BENZOFLAVONE, BETA-GLUCOSIDASE, Method: PREINCUBATION) “active; positive”; (Test System: AMES SALMONELLA TYPHIMURIUM, Strain/Indicator: TA98, Metabolic Activation: RAT, LIVER, S-9, PHENOBARBITAL AND 5,6-BENZOFLAVONE, BETA-GLUCOSIDASE, Method: PREINCUBATION) “inactive; negative”; (Test System: AMES SALMONELLA TYPHIMURIUM, Strain/Indicator: TA100, Metabolic Activation: RAT, LIVER, S-9, PHENOBARBITAL AND 5,6-BENZOFLAVONE, BETA-GLUCOSIDASE, Method: PREINCUBATION) “active; positive”; (Test System: AMES SALMONELLA TYPHIMURIUM, Strain/Indicator: TA2637, Metabolic Activation: RAT, LIVER, S-9, PHENOBARBITAL AND 5,6-BENZOFLAVONE, BETA-GLUCOSIDASE, Method: PREINCUBATION) “active; positive”.
